What all share (assay type): functional
Test [1] concerns Mus musculus. Briefly: Parenteral antimalarial effect against Plasmodium berghei in mice (Mus musculus) at a dose of 320 subcutaneous mg/kg.
Test [2] deals with Mus musculus. Briefly: Parenteral antimalarial effect against Plasmodium berghei in mice (Mus musculus) at a dose of 80 mg/kg subcutaneously. The conditions noted are these: route subcutaneous.
In test [3] the test system is Mus musculus. The test is described as follows: Parenteral antimalarial effect against Plasmodium berghei in mice (Mus musculus) at a dose of 20sc mg/kg.
For test [4], the system named is Escherichia coli. Briefly: In vitro antibacterial effect against Escherichia coli Vogel by using gradient plate test.
Test [5] deals with Staphylococcus aureus. The test is described as follows: In vitro antibacterial effect against Staphylococcus aureus UC-76 by using gradient plate test.
Test [6] concerns Mus musculus. The test is described as follows: Parenteral antimalarial effect against Plasmodium berghei in mice (Mus musculus) at a dose of 40 mg/kg subcutaneously. The conditions noted are these: route subcutaneous.
In test [7] the test system is Mus musculus. The test is described as follows: Parenteral antimalarial effect against Plasmodium berghei in mice (Mus musculus) at a dose of 160 subcutaneously mg/kg.
A further test relates to Enterococcus faecalis. The test is described as follows: In vitro antibacterial effect against Streptococcus faecalis MGH-2.
Test [8] deals with Mycobacterium tuberculosis. Briefly: In vitro antibacterial effect against Mycobacterium tuberculosis H37Rv by using gradient plate test.
The test system of test [9] is Mus musculus. Briefly: Parenteral antimalarial effect against Plasmodium berghei in mice (Mus musculus) at a dose of 640 subcutaneously mg/kg.
Test [10] concerns Staphylococcus aureus. Briefly: In vitro antibacterial effect against Staphylococcus aureus S18713 by using gradient plate test.
The next test has as its system Shigella sonnei. The test is described as follows: In vitro antibacterial effect against Shigella sonnei C-10 by using gradient plate test.
The test system of a further test is Pseudomonas aeruginosa. The test is described as follows: In vitro antibacterial effect against Pseudomonas aeruginosa 28 by using gradient plate test.
Test [11] concerns Mus musculus. The test is described as follows: Parenteral antimalarial effect against Plasmodium berghei in mice (Mus musculus) at a dose of 10sc mg/kg.
For test [12], the system named is Escherichia coli. Briefly: In vitro antibacterial effect against E. c. Vogel by using gradient plate test.

In brackets after ≈: the same amount, converted by molar mass.

Turning to `COc1ccc2ccccc2c1CN(C)c1cnc2nc(N)nc(N)c2n1`, the MST with Mus musculus [1], in the test on Mus musculus [2] and in the test on Mus musculus [3] was 0.2 days throughout.

One may read the MIC as the lowest concentration found to suppress growth. Higher therefore signals a need for much substance. As for `Nc1nc(N)c2nc(N3CCC(c4ccccc4)CC3)cnc2n1`, the MIC is over 25 µg/mL against Escherichia coli [4]; over 0.25 µg/mL with Staphylococcus aureus [5]; under 0.25 µg/mL in the test with Enterococcus faecalis; 10 µg/mL (≈ 31.1 µM) in test [8]; over 0.25 µg/mL with Staphylococcus aureus [10]; over 25 µg/mL with Shigella sonnei. In addition, in the test on Pseudomonas aeruginosa, the MIC is over 25 µg/mL. The MST in the test with Mus musculus [6], with Mus musculus [7] and in the test with Mus musculus [9] was 0.1 days throughout.

Take `CN(CCc1ccccc1)c1cnc2nc(N)nc(N)c2n1`: the MIC was over 25 µg/mL against Escherichia coli [4]; under 0.25 µg/mL against Staphylococcus aureus [5]; under 0.25 µg/mL with Enterococcus faecalis; over 25 µg/mL in test [8]; under 0.25 µg/mL in the test on Staphylococcus aureus [10]; over 25 µg/mL in the test on Shigella sonnei. The molecule also showed an MIC in the test with Pseudomonas aeruginosa of over 25 µg/mL. The MST in the test with Mus musculus [1] was determined as 1.7 days; in the test with Mus musculus [2], 0.1 days; with Mus musculus [6] it was 0.1 days; with Mus musculus [7], 0.7 days; in the test with Mus musculus [9] it was 3.9 days; in the test with Mus musculus [3] it was 0.1 days.

For `Nc1nc(N)c2nc(N3CCCCC3)cnc2n1`, the MST in the test on Mus musculus [1] is 0.9 days; in the test on Mus musculus [2], 0.3 days; in the test on Mus musculus [3] it was 0.3 days.

For the molecule `CN(Cc1ccc2c(c1)Cc1ccccc1-2)c1cnc2nc(N)nc(N)c2n1`, the minimal inhibitory concentration (MIC) with Escherichia coli [4] is over 25 µg/mL; in the test on Staphylococcus aureus [5], under 0.25 µg/mL; against Enterococcus faecalis, under 0.25 µg/mL; in test [8], 5 µg/mL (≈ 13.5 µM); in the test on Staphylococcus aureus [10], under 0.25 µg/mL; with Shigella sonnei, over 25 µg/mL. Also, the MIC against Pseudomonas aeruginosa was over 25 µg/mL. The MST worked out at 5 days with Mus musculus [1]; 2 days in the test with Mus musculus [2]; 8.1 days with Mus musculus [6]; 5 days with Mus musculus [7]; 6.3 days in the test with Mus musculus [3]; 3.5 days with Mus musculus [11].

As for `COc1ccc(CN(C)c2cnc3nc(N)nc(N)c3n2)c2ccccc12`, the MIC is over 25 µg/mL in the test with Escherichia coli [4]; under 0.25 µg/mL against Staphylococcus aureus [5]; under 0.25 µg/mL with Enterococcus faecalis; 2.5 µg/mL (≈ 6.92 µM) in [8]; under 0.25 µg/mL with Staphylococcus aureus [10]; over 25 µg/mL against Shigella sonnei. For the same molecule, the MIC with Pseudomonas aeruginosa was over 25 µg/mL. Further, the MST is 5 days in the test on Mus musculus [1]; 5 days in the test on Mus musculus [2]; 5 days in the test on Mus musculus [6]; 5 days in the test on Mus musculus [7]; 5 days in the test on Mus musculus [9]; 6.5 days in the test with Mus musculus [3].

On to `CN(Cc1c2ccccc2cc2ccccc12)c1cnc2nc(N)nc(N)c2n1`, for which the values for the MST with Mus musculus [1], in the test on Mus musculus [2] and in the test on Mus musculus [3] were 1.3 days, 0.1 days and 0.1 days, respectively.

Consider `CN(Cc1ccccc1)c1cnc2nc(N)nc(N)c2n1`, for which the minimum inhibitory concentration (MIC) was under 0.25 µg/mL against Staphylococcus aureus [5]; under 0.25 µg/mL against Enterococcus faecalis; 10 µg/mL (≈ 35.5 µM) in test [8]; under 0.25 µg/mL against Staphylococcus aureus [10]; over 25 µg/mL in the test with Shigella sonnei; over 25 µg/mL against Pseudomonas aeruginosa. The molecule further displayed a minimum inhibitory concentration (MIC) in the test with Escherichia coli [12] of 10 µg/mL (≈ 35.5 µM). Besides, the MST turned out to be 0.1 days in the test on Mus musculus [6], 0.1 days in the test with Mus musculus [7] and 0.3 days with Mus musculus [9].

With `Nc1nc(N)c2nc(N3CCc4ccccc4C3)cnc2n1`, the MST with Mus musculus [6] amounted to 0.1 days; with Mus musculus [7], 0.3 days; with Mus musculus [9], 0.5 days.

In the case of `CC1(C)N=C(N)N=C(N)N1c1ccc(Cl)cc1.Cl` [CHLORCYCLOGUANIL HYDROCHLORIDE], the MST amounted to 3 days in the test on Mus musculus [1]; 2 days in the test on Mus musculus [2]; 1 days in the test on Mus musculus [6]; 5 days in the test on Mus musculus [7]; 5 days in the test on Mus musculus [9]; 7.9 days in the test with Mus musculus [3].

The values above are taken from ChEMBL document CHEMBL1121776, “Folate antagonists. 18. Synthesis and antimalarial effects of N6-(arylmethyl)-N6-methyl-2,4,6-pteridinetriamines and related N6,N6-disubstituted 2,4,6-pteridinetriamines” (1981).
